Measured values taken from PubChem BioAssay AID463237 (Sanford-Burnham Center for Chemical Genomics, 2010).
In brackets after ≈: the same amount, converted by molar mass.

Tested on: aqueous solubility, 1x PBS pH 7.4, UV, 18 h
Experiment: compound solubility at pH 7.4 – biophysical, 1x PBS, ADME assay (AID 463237)
Settings: at 100 µM; hits give high values

CCCCn1c(NC(=O)c2ccc(F)cc2)c(C#N)c2nc3ccccc3nc21
solubility: 14 µg/mL (≈ 36.1 µM)
